According to patent US7763616B2, “Piperazine-piperidines with CXCR3 antagonist activity” (Schering Corporation, priority 2005, dated 2010):
Like-named read-outs stand apart in the source and are kept apart here.

Biological target: T1, human CXCR3 (N-delta 4) (Homo sapiens, UniProt P49682)
T1 construct: CD8 leader (N); Flag tag; expressed in transfected cells; membrane preparation
T1 sequence (P49682 5-368 limits assumed): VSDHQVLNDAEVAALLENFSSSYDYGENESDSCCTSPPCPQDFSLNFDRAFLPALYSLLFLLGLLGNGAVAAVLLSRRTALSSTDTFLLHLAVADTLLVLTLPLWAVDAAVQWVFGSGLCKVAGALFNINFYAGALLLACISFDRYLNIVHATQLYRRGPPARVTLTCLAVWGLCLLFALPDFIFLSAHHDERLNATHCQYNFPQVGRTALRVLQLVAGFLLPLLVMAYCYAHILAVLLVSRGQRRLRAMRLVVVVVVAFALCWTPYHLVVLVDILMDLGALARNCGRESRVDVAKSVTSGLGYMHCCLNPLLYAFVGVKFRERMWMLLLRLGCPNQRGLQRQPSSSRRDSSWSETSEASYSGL
Experiment: Human CXCR3 (N-delta 4) Scintillation Proximity Assay (SPA), [125I] IP-10 binding
Conditions: Ba/F3-hCXCR3 (N-delta 4) membranes, 25 pM [125I] IP-10
Source text: The inventive compounds can readily be evaluated to determine activity at the CXCR3 receptors by known methods, such as, for example, development of a human CXCR3 (N-delta 4) Binding Assay.
Cloning and Expression of Human CXCR3 (N-delta 4):
The DNA encoding human CXCR3 was cloned by PCR using human genomic DNA (Promega, Madison, Wis.) as a template. The PCR primers were designed based on the published sequence of human orphan receptor GPR9 (1) with incorporated restriction sites, a Kozak consensus sequence, CD8 leader and Flag tag. The PCR product was subcloned into the mammalian expression vector pME18Sneo, a derivative of the SR-alpha expression vector (designated as pME18Sneo-hCXCR3 (N-delta 4).
IL-3-dependent mouse pro-B cells Ba/F3 were transfected by electroporation in 0.4 ml Dulbecco's PBS containing 4×10^6 cells with 20 μg of pME18Sneo-hCXCR3 (N-delta 4) plasmid DNA. Cells were pulsed at 400 Volts, 100 OHMs, […]. The transfected cells were under selection with 1 mg/ml G418 (Life Technologies, Gaithersburg, Md.). G418-resistant Ba/F3 clones were screened for CXCR3 expression by specific binding of [^125I] IP10 (NEN Life Science Products, Boston, Mass.).
Preparation of Ba/F3-hCXCR3 (N-delta 4) Membranes:
Ba/F3 cells expressing human CXCR3 (N-delta 4) were pelleted and resuspended in the lysis buffer containing 10 mM HEPES, pH 7.5 and Complete® protease inhibitors (1 tablet per 100 ml) (Boehringer Mannheim, Indianapolis, Ind.) at a cell density of 20×10^6 cells per ml. After 5 minute incubation on ice, cells were transferred to 4639 cell disruption bomb (Parr Instrument, Moline, Ill.) and applied with 1,500 psi of nitrogen for 30 minutes on ice. Large cellular debris was removed by centrifugation at 1,000×g. Cell membrane in the supernatant was sedimented at 100,000×g. The membrane was resuspended in the lysis buffer supplemented with 10% sucrose and stored at −80° C. Total protein concentration of the membrane was determined by BCA method from Pierce (Rockford, Ill.).
Human CXCR3 (N-delta 4) Scintillation Proximity Assay (SPA):
For each assay point, 2 μg of membrane was preincubated for 1 hr with 300 μg wheat germ agglutinin (WGA) coated SPA beads (Amersham, Arlington Heights, Ill.) in the binding buffer (50 mM HEPES, 1 mM CaCl2, 5 mM MgCl2, 125 mM NaCl, 0.002% NaN3, 1.0% BSA) at room temperature. The beads were spun down, washed once, resuspended in the binding buffer and transferred to a 96-well Isoplate (Wallac, Gaithersburg, Md.). 25 pM of [^125I] IP-10 with tested compounds in a series of titration were added to start the reaction. After 3 hr reaction at room temperature, the amount of [^125I] IP10 bound to the SPA beads was determined with a Wallac 1450 Microbeta counter.

IC50 (IC50 ratings, read-out: IC50) [nM] | IC50 (read-out: IC50 value) [nM] | Compound
> 100 | – | CC[C@H]1CN(c2nc3[nH]c(=O)[nH]c3nc2Cl)CCN1C1CCN(C(C#N)c2ccc(Cl)cc2)CC1 (mixture of isomers) [Compound 33]
< 25 | 0.3 | CC[C@H]1CN(c2nc3c(nc2Cl)CNc2c(c(=O)c2=O)N3)CCN1C1CCN(Cc2ccc(Cl)cc2F)CC1 [Compound 1]
< 25 | – | CC[C@H]1CN(c2nc3[nH]c(=O)[nH]c3nc2Cl)CCN1C1CCN(Cc2ccc(Cl)cc2)CC1 [Compound 2]
< 25 | – | CC[C@H]1CN(c2nc3[nH]c(=O)[nH]c3nc2Cl)CCN1C1CCN([C@@H](CO)c2ccc(Cl)cc2)CC1 [Compound 3]
< 25 | – | CC[C@H]1CN(c2nc3c(nc2Cl)CNC(=O)N3)CCN1C1CCN(Cc2ccc(Cl)cc2F)CC1 [Compound 4]
< 25 | – | CC[C@H]1CN(c2nc3c(nc2Cl)CN/C(=N\C#N)N3)CCN1C1CCN(Cc2ccc(Cl)cc2F)CC1 [Compound 5]
< 25 | – | CC[C@H]1CN(c2nc3[nH]c(=O)[nH]c3nc2Cl)CCN1C1CCN(Cc2ccc(Cl)cc2F)CC1 [Compound 6]
< 25 | – | CC[C@H]1CN(c2nc3[nH]c(=O)n(C)c(=O)c3nc2Cl)CCN1C1CCN(Cc2ccc(Cl)cc2)CC1 [Compound 7]
< 25 | – | CC[C@H]1CN(c2nc3[nH]c(=O)n(C(=O)OC(C)(C)C)c3nc2Cl)CCN1C1CCN(Cc2ccc(Cl)cc2)CC1 [Compound 8]
< 25 | – | CC[C@H]1CN(c2cc3[nH]c(C(F)(F)F)nc3cc2Cl)CCN1C1CCN(Cc2ccc(Cl)cc2F)CC1 [Compound 9]
< 25 | – | CC[C@H]1CN(c2nc3[nH]c(=O)[nH]c3nc2Cl)CCN1C1CCN([C@H](CO)c2ccc(Cl)cc2)CC1 [Compound 11]
< 25 | – | CC[C@H]1CN(c2nc3[nH]c(=O)[nH]c3nc2Cl)CCN1C1CCN(C(=O)c2ccc(Cl)nc2N)CC1 [Compound 12]
< 25 | – | CC[C@H]1CN(c2nc3[nH]c(=O)[nH]c3nc2Cl)CCN1C1CCN(Cc2ccc(Cl)cc2C#N)CC1 [Compound 13]
< 25 | – | CCc1nc2nc(N3CCN(C4CCN(Cc5ccc(Cl)cc5F)CC4)[C@@H](CC)C3)c(Cl)nc2c(=O)n1CC [Compound 15]
< 25 | – | CC[C@H]1CN(c2nc3c(nc2Cl)CNC(=O)N3)CCN1C1CCN(C(=O)c2ccc(Cl)nc2N)CC1 [Compound 16]
< 25 | – | CC[C@H]1CN(c2nc3[nH]c(=O)[nH]c3nc2Cl)CCN1C1CCN(Cc2ccc(-n3cccn3)cc2)CC1 [Compound 17]
25 to 100 | – | CC[C@H]1CN(c2nc3c(nc2Cl)C(=O)NCCN3)CCN1C1CCN(C(=O)c2ccc(Cl)nc2N)CC1 [Compound 18]

IC50 (IC50 ratings, read-out: IC50) [nM] | IC50 (read-out: IC50 value) [nM] | Compound
25 to 100 | – | CC[C@H]1CN(c2nc3[nH]c(=O)[nH]c3nc2Cl)CCN1C1CCN(C(=O)c2ccc(Cl)cc2)CC1 [Compound 19]
25 to 100 | – | CC[C@H]1CN(c2nc3ncn(CC)c(=O)c3nc2Cl)CCN1C1CCN(Cc2ccc(Cl)cc2)CC1 [Compound 20]
25 to 100 | – | CC[C@H]1CN(c2cc3[nH]c(=O)[nH]c3cc2Cl)CCN1C1CCN(Cc2ccc(Cl)cc2F)CC1 [Compound 21]
25 to 100 | – | CC[C@H]1CN(c2nc3c(nc2Cl)[nH]c(=O)n3Cc2ccc(Cl)cc2C#N)CCN1C1CCN(Cc2ccc(Cl)cc2C#N)CC1 [Compound 22]
25 to 100 | – | CC[C@H]1CN(c2nc3nc(C)n(CC)c(=O)c3nc2Cl)CCN1C1CCN(Cc2ccc(Cl)cc2F)CC1 [Compound 23]
25 to 100 | – | CC[C@H]1CN(c2cc3[nH]cnc3cc2Cl)CCN1C1CCN(Cc2ccc(Cl)cc2F)CC1 [Compound 24]
> 100 | – | CC[C@H]1CN(c2cc3[nH]cnc3cc2Cl)CCN1C1CCN(Cc2ccc(Cl)cc2F)CC1 [Compound 25]
> 100 | – | CC[C@H]1CN(c2nc3[nH]c(=O)n(Cc4ccc(Cl)cc4C#N)c3nc2Cl)CCN1C1CCN(Cc2ccc(Cl)cc2C#N)CC1 [Compound 26]
> 100 | – | CC[C@H]1CN(c2cc3[nH]c(=S)[nH]c3cc2Cl)CCN1C1CCN(Cc2ccc(Cl)cc2F)CC1 [Compound 28]
> 100 | – | CC[C@H]1CN(c2cc3[nH]c(=O)c(=O)[nH]c3cc2Cl)CCN1C1CCN(Cc2ccc(Cl)cc2F)CC1 [Compound 29]
> 100 | – | CC[C@H]1CN(c2nc3[nH]c(=O)[nH]c3nc2Cl)CCN1C1CCN([C@H](C(=O)OC)c2ccc(Cl)cc2)CC1 [Compound 30]
> 100 | – | CCNC(=O)n1cnc2cc(Cl)c(N3CCN(C4CCN(Cc5ccc(Cl)cc5F)CC4)[C@@H](CC)C3)cc21 [Compound 31]
> 100 | – | CC[C@H]1CN(c2cc3[nH]c(-c4ccccc4)nc3cc2Cl)CCN1C1CCN(Cc2ccc(Cl)cc2F)CC1 [Compound 32]
> 100 | – | CC[C@H]1CN(c2nc3c(nc2Cl)C(=O)NCCNC(=O)N3)CCN1C1CCN(C(=O)c2ccc(Cl)nc2N)CC1 [Compound 34]
> 100 | – | CC[C@H]1CN(c2cc3c(cc2Cl)nc(NS(C)(=O)=O)n3S(C)(=O)=O)CCN1C1CCN(Cc2ccc(Cl)cc2F)CC1 [Compound 35]
> 100 | – | CC[C@H]1CN(c2cc3c(cc2Cl)nc(C(F)(F)F)n3C)CCN1C1CCN(Cc2ccc(Cl)cc2F)CC1 [Compound 37]
> 100 | – | CCc1nc2nc(N3CCN(C4CCN(Cc5ccc(Cl)cc5F)CC4)[C@@H](CC)C3)c(O)nc2c(=O)n1CC [Compound 38]
